From patent US20240059689A1, “PURINE DERIVATIVES AS ANTICANCER AGENTS” (Tango Therapeutics, Inc., priority 2021, published 2024)

Assays:
USP1-UAF1 = USP1-UAF1 (Homo sapiens, UniProt O94782); experiment: Ubiquitin Rhodamine assay of USP1-UAF1 activity; format: biochemical
Description: Certain compounds of the disclosure were assessed for USP1-UAF1 activity in a Ubiquitin Rhodamine assay as described in Biology Example 1.

HCC1954 = experiment: Viability assay, BRCA1 WT cell line HCC1954; format: cell-based; conditions: Homo sapiens, HCC1954, viability, read-out: HCC1954 rel IC50
From the text: (§1) Table 1 also indicates IC50 values in a viability assay for a non-isogenic pair of BRCA1 mutant (column 5-MDA-MB-436) and BRCA1 WT (column 6—HCC1954) cell lines. These values indicate the effect of treatment with compound on cell survival.

MDA-MB-436 = experiment: Viability assay, BRCA1 mutant cell line MDA-MB-436; format: cell-based; conditions: Homo sapiens, MDA-MB-436, viability, BRCA1 mutant MDA-MB-436; read-out: MDA-MB-436 rel IC50
From the text: as §1

Chain of USP1-UAF1 (O94782 whole entry): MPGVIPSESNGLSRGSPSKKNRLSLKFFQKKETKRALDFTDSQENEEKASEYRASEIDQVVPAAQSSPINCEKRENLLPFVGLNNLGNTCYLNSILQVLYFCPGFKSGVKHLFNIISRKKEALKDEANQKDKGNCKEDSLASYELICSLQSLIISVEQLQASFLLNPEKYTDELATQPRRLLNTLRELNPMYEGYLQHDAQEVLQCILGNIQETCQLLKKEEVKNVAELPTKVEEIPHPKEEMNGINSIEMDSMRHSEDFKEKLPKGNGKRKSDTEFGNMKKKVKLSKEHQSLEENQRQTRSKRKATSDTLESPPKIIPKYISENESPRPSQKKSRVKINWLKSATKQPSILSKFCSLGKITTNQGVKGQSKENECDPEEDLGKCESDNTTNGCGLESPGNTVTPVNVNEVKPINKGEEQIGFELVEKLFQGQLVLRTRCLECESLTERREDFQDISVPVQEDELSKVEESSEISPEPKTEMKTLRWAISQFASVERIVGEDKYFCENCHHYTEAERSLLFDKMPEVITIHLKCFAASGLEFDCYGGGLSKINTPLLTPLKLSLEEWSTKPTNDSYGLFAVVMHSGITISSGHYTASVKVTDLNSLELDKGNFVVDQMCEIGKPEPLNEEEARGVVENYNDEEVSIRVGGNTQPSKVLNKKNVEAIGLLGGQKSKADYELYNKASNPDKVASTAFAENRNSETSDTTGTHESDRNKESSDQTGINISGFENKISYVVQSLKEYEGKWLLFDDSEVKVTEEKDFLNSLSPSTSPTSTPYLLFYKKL
Chain of USP1-UAF1 (Q8TAF3 whole entry partner): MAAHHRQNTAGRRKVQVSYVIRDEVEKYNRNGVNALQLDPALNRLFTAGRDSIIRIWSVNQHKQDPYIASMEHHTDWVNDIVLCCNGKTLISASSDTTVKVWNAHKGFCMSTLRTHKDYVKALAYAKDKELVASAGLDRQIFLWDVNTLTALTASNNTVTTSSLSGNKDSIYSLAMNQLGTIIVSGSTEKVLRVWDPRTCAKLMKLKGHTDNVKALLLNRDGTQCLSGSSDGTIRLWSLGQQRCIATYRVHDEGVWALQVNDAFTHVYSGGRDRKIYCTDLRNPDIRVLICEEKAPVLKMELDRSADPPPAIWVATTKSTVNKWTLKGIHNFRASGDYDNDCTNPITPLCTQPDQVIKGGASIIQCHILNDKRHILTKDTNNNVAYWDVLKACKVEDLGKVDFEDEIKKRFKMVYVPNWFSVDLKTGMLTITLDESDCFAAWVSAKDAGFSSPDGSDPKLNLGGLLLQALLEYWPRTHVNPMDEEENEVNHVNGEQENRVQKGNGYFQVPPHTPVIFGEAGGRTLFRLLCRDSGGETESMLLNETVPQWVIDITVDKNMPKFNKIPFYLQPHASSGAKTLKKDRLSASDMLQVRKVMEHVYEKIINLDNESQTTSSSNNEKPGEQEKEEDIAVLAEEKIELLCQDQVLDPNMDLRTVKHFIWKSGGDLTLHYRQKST

Compound	IC50 (USP1-UAF1)	IC50 (HCC1954)	IC50 (MDA-MB-436)
COc1nc(-c2ccccc2C(C)C)nc2c1n(C)c(=N)n2Cc1ccc(-c2nc(C(F)(F)F)cn2C)cc1 [Example A-20, 2-(2-isopropylphenyl)-6-methoxy-7-methyl-9-(4-(1-methyl-4-(trifluoromethyl)-1H-imidazol-2-yl)benzyl)-7,9-dihydro-8H-purin-8-imine]	0.1 to 10 µM	0.25 to 10 µM	0.25 to 10 µM
Cc1cnn(C)c1-c1ncc2c(n1)n(Cc1ccc(-c3nc(C(F)(F)F)cn3C)cc1)c(=N)n2C [Example T-012]	0.1 to 10 µM	≥ 10 µM	0.25 to 10 µM
Cn1cc(C(F)(F)F)nc1-c1ccc(Cn2c(=N)n(C)c3cnc(-c4c(C(F)(F)F)nn(C)c4C#N)nc32)cc1 [Example T-072]	0.1 to 10 µM	0.25 to 10 µM	0.25 to 10 µM
COc1ccn(-c2ccc(Cn3c(=N)n(C)c4cnc(-c5ccccc5C(C)C)nc43)cc2F)n1 [Example T-074]	0.1 to 10 µM	0.25 to 10 µM	0.25 to 10 µM
Cn1c(=N)n(Cc2ccc(-c3nc(C(F)(F)F)c[nH]3)c(F)c2)c2nc(-c3ccccc3C(F)(F)F)ncc21 [Example T-068]	0.1 to 10 µM	0.25 to 10 µM	0.25 to 10 µM
CC(C)c1ccccc1-c1ncc2c(n1)n(CC1CCC(c3nc(C(F)(F)F)cn3C)CC1)c(=N)n2C (centres unmarked) [Example T-006]	0.1 to 10 µM	0.25 to 10 µM	0.25 to 10 µM
Cn1cc(C(F)(F)F)nc1-c1ccc(Cn2c(=N)n(C)c3cnc(-c4cccnc4C#N)nc32)cc1 [Example T-050]	0.1 to 10 µM	≥ 10 µM	≥ 10 µM
COc1ccn(-c2ccc(Cn3c(=N)n(C)c4cnc(-c5ccccc5C(C)C)nc43)cc2C)n1 [Example T-056]	0.1 to 10 µM	0.25 to 10 µM	0.25 to 10 µM
CC(C)c1ccccc1-c1ncc2c(n1)n(Cc1ccc(N3C[C@@H](C(F)(F)F)C[C@H]3C)cc1)c(=N)n2C [Example T-024]	0.1 to 10 µM	–	–
CC(C)c1ccccc1-c1ncc2c(n1)n(Cc1ccc(N3CCC(C(F)(F)F)C3)cc1)c(=N)n2C (single isomer, unassigned) [Example A-10d, 2-(2-isopropylphenyl)-7-methyl-9-(4-(3-(trifluoromethyl)pyrrolidin-1-yl)benzyl)-7,9-dihydro-8H-purin-8-imine]	0.1 to 10 µM	–	–

Results, then the molecule that gave them:

IC50 (USP1-UAF1)	IC50 (HCC1954)	IC50 (MDA-MB-436)	Compound
0.1 to 10 µM	–	–	CC(C)c1ccccc1-c1ncc2c(n1)n(Cc1ccc(-c3cccn3C)cc1)c(=N)n2C [Example T-088]
0.1 to 10 µM	≥ 10 µM	0.25 to 10 µM	CC(C)c1ccccc1-c1ncc2c(n1)n(Cc1ccc(-c3nccn3C)cc1)c(=N)n2C [Example A-2, 2-(2-isopropylphenyl)-7-methyl-9-(4-(1-methyl-1H-imidazol-2-yl)benzyl)-7H-purin-8(9H)-imine]
0.1 to 10 µM	–	–	CC(C)c1ccccc1-c1ncc2c(n1)n(Cc1ccc(N3CCC(C(F)(F)F)C3)cc1)c(=N)n2C (single isomer, unassigned) [Example A-10e, 2-(2-isopropylphenyl)-7-methyl-9-(4-(3-(trifluoromethyl)pyrrolidin-1-yl)benzyl)-7,9-dihydro-8H-purin-8-imine]
0.1 to 10 µM	≥ 10 µM	0.25 to 10 µM	COc1ncccc1-c1ncc2c(n1)n(C1(c3ccc(-c4nc(C(F)(F)F)cn4C)cc3)CC1)c(=N)n2C [Example T-043]
0.03 to 0.1 µM	≥ 10 µM	< 0.1 µM	COc1ncnc(C2CC2)c1-c1ncc2c(n1)n(Cc1ccc(-c3nc(C(F)(F)F)cn3C)cc1O)c(=N)n2C [Example T-133, 2-[[2-(4-cyclopropyl-6-methoxy-pyrimidin-5-yl)-8-imino-7-methyl-purin-9-yl]methyl]-5-[1-methyl-4-(trifluoromethyl)imidazol-2-yl]phenol]
0.1 to 10 µM	≥ 10 µM	0.25 to 10 µM	COn1cc(C(F)(F)F)nc1-c1ccc(Cn2c(=N)n(C)c3cnc(-c4ccccc4C(F)(F)F)nc32)nc1 [Example T-048]
0.1 to 10 µM	≥ 10 µM	0.25 to 10 µM	COc1cc(C(F)(F)F)nn1-c1ccc(Cn2c(=N)n(C)c3cnc(-c4ccccc4C(F)(F)F)nc32)cn1 [Example T-055]
< 0.03 µM	0.25 to 10 µM	0.1 to 0.25 µM	Cn1cc(C(F)(F)F)nc1-c1ccc(Cn2c(=N)n(CC(F)(F)F)c3cnc(-c4c(C(F)(F)F)cnn4C)nc32)cc1 [Example T-101]
0.1 to 10 µM	≥ 10 µM	0.25 to 10 µM	Cn1c(=N)n(Cc2ccc(-c3nc(C(F)(F)F)cn3CCO)cc2)c2nc(-c3ccccc3C(F)(F)F)ncc21 [Example T-083]
0.03 to 0.1 µM	–	–	Cc1cccc(Cl)c1-c1ncc2c(n1)n(Cc1ccc(-c3nc(C(F)(F)F)cn3C)cc1)c(=N)n2C [Example B-7, 2-(2-chloro-6-methylphenyl)-7-methyl-9-(4-(1-methyl-4-(trifluoromethyl)-1H-imidazol-2-yl)benzyl)-7,9-dihydro-8H-purin-8-imine]
